Laboratory results from ChEMBL document CHEMBL3102819, “Morpholylureas are a new class of potent and selective inhibitors of the type 5 17-β-hydroxysteroid dehydrogenase (AKR1C3)” (Bioorg Med Chem, 2014).
Where a chain is given by its changes, count along the chain named.

Assays:
[1] = biological target: T1, Aldo-keto reductase family 1 member C3 (Homo sapiens, UniProt P42330); assay: Inhibition of recombinant AKR1C3 (unknown origin) after 1 hr by competitive fluorescence assay
T1 sequence (P42330 whole entry): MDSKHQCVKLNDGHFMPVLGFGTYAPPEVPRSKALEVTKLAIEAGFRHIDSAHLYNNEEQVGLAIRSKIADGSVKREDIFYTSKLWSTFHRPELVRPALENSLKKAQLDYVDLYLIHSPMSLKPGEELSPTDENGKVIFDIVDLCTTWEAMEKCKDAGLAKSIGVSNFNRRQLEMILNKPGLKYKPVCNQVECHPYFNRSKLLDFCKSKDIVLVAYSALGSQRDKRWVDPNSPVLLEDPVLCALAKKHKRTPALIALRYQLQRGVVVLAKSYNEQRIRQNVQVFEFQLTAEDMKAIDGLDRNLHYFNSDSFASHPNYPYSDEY

[2] = biological target: T2, Aldo-keto reductase family 1 member C1 (Homo sapiens, UniProt Q04828); assay: Inhibition of recombinant AKR1C1 (unknown origin) after 1 hr by competitive fluorescence assay
T2 sequence (Q04828 whole entry): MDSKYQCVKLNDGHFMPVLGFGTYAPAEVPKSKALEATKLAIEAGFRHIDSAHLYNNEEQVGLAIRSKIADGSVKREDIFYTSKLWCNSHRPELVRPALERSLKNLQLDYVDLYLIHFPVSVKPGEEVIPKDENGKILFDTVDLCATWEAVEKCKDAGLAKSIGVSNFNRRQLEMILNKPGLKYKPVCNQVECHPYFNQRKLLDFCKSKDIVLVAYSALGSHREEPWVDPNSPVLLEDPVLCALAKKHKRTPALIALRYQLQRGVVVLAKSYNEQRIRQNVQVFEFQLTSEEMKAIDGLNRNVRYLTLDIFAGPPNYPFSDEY

[3] = biological target: T3, Aldo-keto reductase family 1 member C4 (Homo sapiens, UniProt P17516); assay: Inhibition of recombinant AKR1C4 (unknown origin) after 1 hr by competitive fluorescence assay
T3 sequence (P17516 whole entry): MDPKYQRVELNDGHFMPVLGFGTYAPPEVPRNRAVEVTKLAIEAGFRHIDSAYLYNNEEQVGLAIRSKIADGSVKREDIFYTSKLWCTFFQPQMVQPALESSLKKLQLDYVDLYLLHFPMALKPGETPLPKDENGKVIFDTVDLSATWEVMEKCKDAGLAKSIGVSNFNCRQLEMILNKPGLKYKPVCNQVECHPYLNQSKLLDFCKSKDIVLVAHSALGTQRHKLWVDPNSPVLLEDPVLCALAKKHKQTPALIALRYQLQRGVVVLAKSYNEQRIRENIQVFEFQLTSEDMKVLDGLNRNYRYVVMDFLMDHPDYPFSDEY

[4] = biological target: T4, Aldo-keto reductase family 1 member C2 (Homo sapiens, UniProt P52895); assay: Inhibition of recombinant AKR1C2 (unknown origin) after 1 hr by competitive fluorescence assay
T4 sequence (P52895 whole entry): T2 sequence (Q04828 whole entry) with T38V, R47H, L54V, C87S, V151M, R170H, Q172L

[5] = biological target: T1, Aldo-keto reductase family 1 member C3; assay: Inhibition of AKR1C3 (unknown origin) expressed in human HCT116 cells assessed as formation of PR-104H from PR-104A preincubated for 2 hrs; assay type: cell-based, HCT-116

SMILES | IC50 [1] | IC50 [2] | IC50 [3] | IC50 [4] | IC50 [5]
O=C(N1CCOCC1)N1CCN(c2ccc(F)cc2)CC1 | 0.5 µM | > 30 µM | > 30 µM | > 30 µM | –
O=C(N1CCOCC1)N1CCCN(c2ccc(Cl)cc2)CC1 | 30 µM | – | – | – | –
CC(=O)Nc1ccc(N2CCN(C(=O)N3CCOCC3)CC2)cc1 | > 30 µM | – | – | – | –
O=C(N1CCN(c2ccc(Cl)cc2)CC1)N1CC[S+]([O-])CC1 | > 30 µM | – | – | – | –
S=C(N1CCOCC1)N1CCN(c2ccc(Cl)cc2)CC1 | > 30 µM | – | – | – | –
CN(C)C(=O)c1ccc(N2CCN(C(=O)N3CCOCC3)CC2)cc1 | > 30 µM | – | – | – | –
O=C(N1CCN(c2ccc(Cl)cc2)CC1)N1CCS(=O)(=O)CC1 | > 30 µM | – | – | – | –
O=C(N1CCCCC1)N1CCN(c2ccc(Cl)cc2)CC1 | 3.8 µM | > 30 µM | > 30 µM | > 30 µM | –
CS(=O)(=O)Nc1ccc(N2CCN(C(=O)N3CCOCC3)CC2)cc1 | > 30 µM | – | – | – | –
O=C(N1CCOCC1)N1CCN(c2ccccc2Cl)CC1 | 2.3 µM | > 30 µM | > 30 µM | > 30 µM | –
O=C(C1CCCCC1)N1CCN(c2ccc(Cl)cc2)CC1 | > 30 µM | – | – | – | –
O=S(=O)(N1CCOCC1)N1CCN(c2ccc(Cl)cc2)CC1 | > 30 µM | – | – | – | –
C#Cc1ccc(N2CCN(C(=O)N3CCOCC3)CC2)cc1 | 0.66 µM | > 30 µM | > 30 µM | > 30 µM | –
COc1ccccc1N1CCN(C(=O)N2CCOCC2)CC1 | 20.3 µM | – | – | – | –
O=C(CO)N1CCN(C(=O)N2CCN(c3ccc(Cl)cc3)CC2)CC1 | 0.46 µM | > 30 µM | > 30 µM | > 30 µM | 0.059 µM
NC(=O)c1cccc(N2CCN(C(=O)N3CCOCC3)CC2)c1 | > 30 µM | – | – | – | –
O=C(C1CCOCC1)N1CCN(c2ccc(Cl)cc2)CC1 | > 30 µM | – | – | – | –
COc1ccc(N2CCN(C(=O)N3CCOCC3)CC2)cc1 | 0.35 µM | > 30 µM | > 30 µM | > 30 µM | –
O=C(N1CCN(CCO)CC1)N1CCN(c2ccc(Cl)cc2)CC1 | > 30 µM | – | – | – | –
O=C(N1CCOCC1)N1CCN(c2ccc(Cl)nc2)CC1 | 0.53 µM | > 30 µM | > 30 µM | > 30 µM | –
CNC(=O)c1ccc(N2CCN(C(=O)N3CCOCC3)CC2)cc1 | > 30 µM | – | – | – | –
O=C(N1CCOCC1)N1CCN(c2ccc(Cl)cc2CO)CC1 | 0.16 µM | > 30 µM | > 30 µM | > 30 µM | 0.013 µM
O=C(N1CCOCC1)N1CCN(c2ccc(Cl)cc2)CC1 | 0.11 µM | > 30 µM | > 30 µM | > 30 µM | 0.018 µM

Next, values leading:

IC50 [1] | IC50 [2] | IC50 [3] | IC50 [4] | IC50 [5] | SMILES
> 30 µM | – | – | – | – | O=C(NC1CCCCC1)N1CCN(c2ccc(Cl)cc2)CC1
5.3 µM | > 30 µM | > 30 µM | > 30 µM | – | O=C(N1CCOCC1)N1CCN(c2cccc(Cl)c2)CC1
6.1 µM | > 30 µM | > 30 µM | > 30 µM | – | O=C(N1CCOCC1)N1CCN(c2ccccc2)CC1
> 30 µM | – | – | – | – | O=C(c1ccccc1)N1CCN(c2ccc(Cl)cc2)CC1
> 30 µM | – | – | – | – | CN1CCN(C(=O)N2CCN(c3ccc(Cl)cc3)CC2)CC1
0.7 µM | > 30 µM | > 30 µM | > 30 µM | – | O=C(N1CCOCC1)N1CCN(c2ccccc2C(F)(F)F)CC1
9.1 µM | > 30 µM | > 30 µM | > 30 µM | – | O=C(N1CCSCC1)N1CCN(c2ccc(Cl)cc2)CC1
> 30 µM | – | – | – | – | NC(=O)c1ccc(N2CCN(C(=O)N3CCOCC3)CC2)cc1
0.14 µM | > 30 µM | > 30 µM | > 30 µM | 0.012 µM | O=C(N1CCOCC1)N1CCN(c2ccc(Br)cc2)CC1
0.35 µM | > 30 µM | > 30 µM | > 30 µM | 0.39 µM | O=C(N1CCN(c2ccc(Cl)cc2)CC1)N1CCc2ccccc2C1
> 30 µM | – | – | – | – | O=C(Nc1ccccc1)N1CCN(c2ccc(Cl)cc2)CC1
12.1 µM | – | – | – | – | Cc1ccccc1N1CCN(C(=O)N2CCOCC2)CC1
12.6 µM | – | – | – | – | O=C(c1ccncc1)N1CCN(c2ccc(Cl)cc2)CC1
0.025 µM | > 30 µM | > 30 µM | > 30 µM | 0.003 µM | O=C(N1CCOCC1)N1CCN(c2ccc(Cl)cc2Cl)CC1
0.48 µM | > 30 µM | > 30 µM | > 30 µM | – | O=C(c1ccc(Cl)cc1)N1CCN(C(=O)N2CCOCC2)CC1
5.52 µM | > 30 µM | > 30 µM | > 30 µM | – | CS(=O)(=O)c1ccc(N2CCN(C(=O)N3CCOCC3)CC2)cc1
0.068 µM | > 30 µM | > 30 µM | > 30 µM | 0.022 µM | O=C(N1CCOCC1)N1CCN(c2ccc(C(F)(F)F)cc2)CC1
3.7 µM | > 30 µM | > 30 µM | > 30 µM | – | O=C(N1CCOCC1)N1CC2CC1CN2c1ccc(Cl)cc1 (stereo not given)
0.1 µM | > 30 µM | > 30 µM | > 30 µM | 0.031 µM | O=C(N1CCOCC1)N1CCN(c2ccc(Br)cn2)CC1
0.067 µM | > 30 µM | > 30 µM | > 30 µM | 0.01 µM | O=C(N1CCOCC1)N1CCN(c2ccc(I)cc2)CC1
> 30 µM | – | – | – | – | O=C(N1CCOCC1)N1CCN(c2ccc(-c3ccccc3)cc2)CC1
> 30 µM | – | – | – | – | O=C(O)c1ccc(N2CCN(C(=O)N3CCOCC3)CC2)cc1
0.57 µM | > 30 µM | > 30 µM | > 30 µM | – | O=C(N1CCOCC1)N1CCN(c2ccc([N+](=O)[O-])cc2)CC1
0.35 µM | > 30 µM | > 30 µM | > 30 µM | – | O=C(N1CCOCC1)N1CCN(Cc2ccc(Cl)cc2)CC1
0.11 µM | > 30 µM | > 30 µM | > 30 µM | 0.013 µM | Cc1cc(Cl)ccc1N1CCN(C(=O)N2CCOCC2)CC1
21.9 µM | – | – | – | – | O=C(O)C1CCN(C(=O)N2CCN(c3ccc(Cl)cc3)CC2)CC1
> 30 µM | > 30 µM | > 30 µM | > 30 µM | – | COC(=O)c1ccc(N2CCN(C(=O)N3CCOCC3)CC2)cc1
4.9 µM | > 30 µM | > 30 µM | > 30 µM | – | O=C(N1CCOCC1)N1CCN(c2ccc3ccccc3c2)CC1
0.36 µM | > 30 µM | > 30 µM | > 30 µM | – | Cc1ccc(N2CCN(C(=O)N3CCOCC3)CC2)cc1
2.9 µM | > 30 µM | > 30 µM | > 30 µM | – | O=C(N1CCOCC1)N1CCN(c2cnc3ccccc3c2)CC1
